# According to US10294202B2, “Pyrrolidinones as herbicides” (FMC Corporation, priority 2013, dated 2019):
# Key:
# [1] = test system: ducksalad; experiment: Test C flooded paddy test; type: in vivo, Heteranthera limosa; details: Flood
# Method in brief: (§1)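 Plants at the 2-leaf stage in pots flooded to 3 cm were treated by applying compound directly to the paddy water, with depth held throughout. After 13 to 15 days in a greenhouse, response was rated visually against controls on a 0 (no effect) to 100 (complete control) scale.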
# [2] = test system: sedge, umbrella; experiment: Test C flooded paddy test; type: in vivo, Cyperus difformis; details: Flood
# Method in brief: as §1
# [3] = test system: kochia; experiment: Test C pre-/postemergence herbicide test; type: in vivo, Kochia scoparia; details: Postemergence
# Method in brief: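 Visual rating, 0 (no effect) to 100 (complete control), versus untreated controls after 13 to 15 days in the greenhouse. Pre: seeds in loam/sand, sprayed at planting. Post: 1- to 4-leaf plants (2 to 18 cm) in peat-based mix. Compounds in non-phytotoxic solvent plus surfactant.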
# [4] = test system: chickweed; experiment: Test C postemergence herbicide test; type: in vivo, Stellaria media
# Method in brief: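 Greenhouse pot plants at 2 to 18 cm height (1- to 4-leaf stage) received a postemergence application of formulated test chemical. Visual ratings against untreated controls were made after 13 to 15 days, on a 0 (no effect) to 100 (complete control) scale.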
# [5] = test system: barnyardgrass; experiment: Test C flooded paddy test; type: in vivo, Echinochloa crus-galli; details: Flood
# Method in brief: as §1
# [6] = test system: kochia; experiment: Test A pre-/postemergence herbicide test; type: in vivo, Kochia scoparia
# Method in brief: (§2)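 Seeds sown in loam soil/sand blend received a preemergence directed soil spray of test chemical in non-phytotoxic solvent with surfactant; postemergence plants (2–10 cm, one- to two-leaf stage) were sprayed with the same formulation. After about 10 days in greenhouse, injury was rated visually versus untreated controls, 0 (no effect) to 100 (complete control).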
# [7] = test system: ryegrass, Italian; experiment: Test A pre-/postemergence herbicide test; type: in vivo, Lolium multiflorum
# Method in brief: as §2
# [8] = 31 g ai/ha, scale of 0 to 100 where 0 is no effect and 100 is complete control, 13 to 15 days
# [9] = 62 g ai/ha, scale of 0 to 100 where 0 is no effect and 100 is complete control, 13 to 15 days
# [10] = 125 g ai/ha, scale of 0 to 100 where 0 is no effect and 100 is complete control, 13 to 15 days
# [11] = 31 g ai/ha, scale 0 (no effect) to 100 (complete control)
# [12] = 62 g ai/ha, scale 0 to 100 (0 no effect, 100 complete control)
# [13] = 125 g ai/ha, scale 0 to 100 (0 no effect, 100 complete control)
# [14] = 250 g ai/ha, scale 0 to 100 (0 no effect, 100 complete control)
# [15] = 250 g ai/ha, scale of 0 to 100 where 0 is no effect and 100 is complete control, 13 to 15 days
# [16] = 125 g ai/ha, visual rating, 0 to 100 scale, 0 no effect, 100 complete control, approximately 10 days, preemergence
# [17] = Postemergence, 125 g ai/ha, 0 to 100 scale, 0 is no effect, 100 is complete control
# [18] = preemergence, 500 g ai/ha, 0 to 100 scale, 0 is no effect and 100 is complete control
# [19] = 31 g ai/ha, scale 0 to 100 (0 no effect, 100 complete control)
# [20] = 62 g ai/ha, scale 0 (no effect) to 100 (complete control)
# [21] = Postemergence, 125 g ai/ha, visual rating on 0 to 100 scale (0 no effect, 100 complete control), approx. 10 days
# [22] = Preemergence, 125 g ai/ha, 0 to 100 scale where 0 is no effect and 100 is complete control
# [23] = Preemergence, 500 g ai/ha, visual rating on 0 to 100 scale (0 no effect, 100 complete control)
SMILES,"Plant response rating, Ducksalad [1, 10]","Plant response rating, Sedge, Umbrella [2, 10]","Plant response rating, Kochia [3, 13]","Plant response rating, Kochia [3, 14]","Plant response rating, Chickweed [4, 13]","Plant response rating, Chickweed [4, 14]","Plant response rating, Barnyardgrass [5, 10]","Plant response rating, Ducksalad [1, 15]","Plant response rating, Ducksalad ([1]; 500 g ai/ha, scale 0 to 100)","Plant response rating, Ducksalad ([1]; 1000 g ai/ha, scale 0 to 100)","Plant response rating, Kochia [6, 16]","Plant response rating, Kochia [6, 17]","Kochia plant response rating (0 to 100 scale, 0 is no effect, 100 is complete control) ([6]; Postemergence, 500 g ai/ha)","Plant response rating, Kochia [6, 18]","Plant response rating, Sedge, Umbrella [2, 15]","Plant response rating, Kochia [3, 19]","Plant response rating, Kochia [3, 20]","Plant response rating, Chickweed [4, 19]","Plant response rating, Chickweed [4, 20]","Plant response rating, Barnyardgrass [5, 15]",other results
"O=C1NCC(c2ccc(C(F)(F)F)cc2)C1C(=O)Nc1cccc(F)c1F (stereo not shown) [Compound 80, N-(2,3-difluorophenyl)-2-oxo-4-[4-(trifluoromethyl)phenyl]-3-pyrrolidinecarboxamide]",100,55,65,65,90,90,0,–,–,–,–,–,–,–,–,–,–,–,–,–,"Plant response rating, Ducksalad [1, 8]: 70; Plant response rating, Ducksalad [1, 9]: 70; Plant response rating, Ducksalad ([1]; 250 g ai/ha, scale 0 to 100): 100; Plant response rating, Sedge, Umbrella [2, 8]: 35; Plant response rating, Sedge, Umbrella [2, 9]: 35; Plant response rating, Sedge, Umbrella ([2]; 250 g ai/ha, scale 0 to 100): 65; Plant response rating, Kochia [3, 11]: 30; Plant response rating, Kochia [3, 12]: 55; Plant response rating, Chickweed [4, 11]: 70; Plant response rating, Chickweed [4, 12]: 85; Plant response rating, Barnyardgrass [5, 8]: 0; Plant response rating, Barnyardgrass [5, 9]: 0; Plant response rating, Barnyardgrass ([5]; 250 g ai/ha, scale 0 to 100): 20"
"O=C1NC[C@H](c2cccc(C(F)(F)F)c2)[C@H]1C(=O)Nc1ccccc1F [Compound 204, (3R,4S)—N-(2-fluorophenyl)-2-oxo-4-[3-(trifluoromethyl)phenyl]-3-pyrrolidinecarboxamide]",50,0,40,40,55,65,50,95,100,100,0,20,60,80,0,10,30,0,30,70,"Plant response rating, Sedge, Umbrella ([2]; 500 g ai/ha, scale 0 to 100): 0; Plant response rating, Sedge, Umbrella ([2]; 1000 g ai/ha, scale 0 to 100): 0; Plant response rating, Barnyardgrass ([5]; 500 g ai/ha, scale 0 to 100): 75; Plant response rating, Barnyardgrass ([5]; 1000 g ai/ha, scale 0 to 100): 80; Plant response rating, Ryegrass, Italian [7, 16]: 20; Plant response rating, Ryegrass, Italian [7, 17]: 30; Ryegrass, Italian plant response rating (0 to 100 scale, 0 is no effect, 100 is complete control) ([7]; Postemergence, 500 g ai/ha): 50; Plant response rating, Ryegrass, Italian [7, 18]: 50"
O=C1NC[C@H](c2cccc(C(F)(F)F)c2)[C@H]1C(=O)Nc1cccc(F)c1F [Compound 206],90,0,30,70,85,85,35,100,100,100,70,70,70,80,0,50,70,85,60,60,"Plant response rating, Sedge, Umbrella ([2]; 500 g ai/ha, scale 0 to 100): 0; Plant response rating, Sedge, Umbrella ([2]; 1000 g ai/ha, scale 0 to 100): 0; Plant response rating, Barnyardgrass ([5]; 500 g ai/ha, scale 0 to 100): 75; Plant response rating, Barnyardgrass ([5]; 1000 g ai/ha, scale 0 to 100): 85; Plant response rating, Ryegrass, Italian [7, 16]: 40; Plant response rating, Ryegrass, Italian [7, 17]: 50; Ryegrass, Italian plant response rating (0 to 100 scale, 0 is no effect, 100 is complete control) ([7]; Postemergence, 500 g ai/ha): 60; Plant response rating, Ryegrass, Italian [7, 18]: 80"
O=C1NCC(c2cccc(OC(F)F)c2)C1C(=O)Nc1cccc(F)c1F (stereo not shown) [Compound 224],80,0,50,70,70,85,40,100,–,–,80,80,90,90,0,0,40,70,70,60,"Plant response rating, Ducksalad [1, 8]: 0; Plant response rating, Ducksalad [1, 9]: 40; Plant response rating, Sedge, Umbrella [2, 8]: 0; Plant response rating, Sedge, Umbrella [2, 9]: 0; Plant response rating, Barnyardgrass [5, 8]: 0; Plant response rating, Barnyardgrass [5, 9]: 20; Plant response rating, Ryegrass, Italian [7, 16]: 60; Plant response rating, Ryegrass, Italian [7, 17]: 50; Ryegrass, Italian plant response rating (0 to 100 scale, 0 is no effect, 100 is complete control) ([7]; Postemergence, 500 g ai/ha): 60; Plant response rating, Ryegrass, Italian [7, 18]: 70"
O=C1NCC(c2ccc(F)c(F)c2)C1C(=O)Nc1ccc(F)c(F)c1F (stereo not shown) [Compound 346],95,0,45,40,40,85,30,100,100,100,–,–,–,–,0,45,50,40,65,45,"Plant response rating, Kochia [6, 21]: 0; Plant response rating, Kochia [6, 22]: 0; Kochia plant response rating [6, 23]: 80; Plant response rating, Sedge, Umbrella ([2]; 500 g ai/ha, scale 0 to 100): 0; Plant response rating, Sedge, Umbrella ([2]; 1000 g ai/ha, scale 0 to 100): 0; Plant response rating, Barnyardgrass ([5]; 500 g ai/ha, scale 0 to 100): 65; Plant response rating, Barnyardgrass ([5]; 1000 g ai/ha, scale 0 to 100): 70; Plant response rating, Ryegrass, Italian [7, 21]: 20; Plant response rating, Ryegrass, Italian [7, 22]: 0; Ryegrass, Italian plant response rating [7, 23]: 30"
